Assay results published in US9464064B2, “HCV helicase inhibitors and methods of use thereof” (University of Kansas, priority 2011, dated 2016).

Molecular target: T1, HCV NS3 helicase NS3h_1b(con1) (Hepatitis C virus genotype 1b, UniProt Q9WMX2)
T1 construct: truncated C-terminally His-tagged NS3 proteins lacking the N-terminal protease, called NS3h; His-tag (C); made in house
Assay: MBHA screen of NCI mechanistic set library at 20 μM (percent inhibition, compound interference)
Format: biochemical
Conditions: compounds at 20 μM; for Inh. (%) (Inhibition): calculated from Equation 1
In short: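 Molecular beacon-based DNA unwinding assay; compounds screened at 20 μM in triplicate, with DMSO-only negative and 500 nM dT20 positive controls. Fluorescence (ex 643/em 670 nm) was read before and 30 min after adding ATP to 1 mM. Percent inhibition came from the change relative to DMSO controls; interference from pre-ATP fluorescence versus DMSO controls.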

[1] = MBHA with DNA substrate, assay interference calculated with Equation 2
[2] = assay interference calculated with Equation 2 (fluorescence vs DMSO-only controls before ATP)

T1 sequence (Q9WMX2 1192-1657): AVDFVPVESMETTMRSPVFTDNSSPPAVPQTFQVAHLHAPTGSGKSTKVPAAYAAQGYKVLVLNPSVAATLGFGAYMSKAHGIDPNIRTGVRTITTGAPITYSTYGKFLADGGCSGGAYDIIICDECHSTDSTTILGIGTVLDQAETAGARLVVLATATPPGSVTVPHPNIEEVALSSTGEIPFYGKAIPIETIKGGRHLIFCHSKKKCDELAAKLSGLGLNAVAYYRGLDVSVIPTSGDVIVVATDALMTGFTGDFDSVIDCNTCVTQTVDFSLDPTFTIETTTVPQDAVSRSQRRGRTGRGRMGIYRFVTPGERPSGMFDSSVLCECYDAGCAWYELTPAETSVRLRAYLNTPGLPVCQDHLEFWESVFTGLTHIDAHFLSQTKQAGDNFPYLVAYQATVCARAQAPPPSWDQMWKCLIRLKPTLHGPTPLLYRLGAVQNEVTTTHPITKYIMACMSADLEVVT

Structure (SMILES) | Inh. (%) (Inhibition) (MBHA with a DNA substrate) | Int.* (Ratio) (Interference) [2] | Int.* (Ratio) (Interference) [1] | Inh. (%) (Inhibition) (MBHA with DNA substrate)
COc1cccc2c1C(=O)c1c(O)c3c(c(O)c1C2=O)C[C@@](O)(C(C)=O)C[C@@H]3OC1CC(N(C)C)C(O)C(C)O1.Cl (stereo partly drawn) [Compound 258812] |  |  | 0.64 Ratio | 46.4%
COc1ccc2c(NCCCCCCNc3c4ccccc4nc4cc(OC)ccc34)c3ccccc3nc2c1 [Compound 260610] | 10.7% | 0.27 Ratio |  | 
C[n+]1ccc(-c2cc[n+](C)cc2)cc1.[Cl-].[Cl-] [Compound 263500] |  |  | 1.18 Ratio | −8.7%
CC[C@@]1(O)C[C@H](O[C@H]2C[C@H](N(C)C)[C@H](O[C@H]3C[C@H](O)[C@H](O[C@H]4C[C@H](O)[C@H](O)[C@H](C)O4)[C@H](C)O3)[C@H](C)O2)c2c(cc3c(c2O)C(=O)c2c(O)ccc(O)c2C3=O)[C@H]1C(=O)OC [Compound 265211] | 8.9% | 0.82 Ratio |  | 
COC1C(C)OC(OC2CC(C)(O)Cc3cc4c(c(O)c32)C(=O)c2c(O)cc3c(c2C4=O)OC2OC3(C)C(O)C(N(C)C)C2O)C(OC)C1(C)OC (stereo not drawn) [Compound 265450] |  |  | 0.54 Ratio | 38.9%
NC1CCCCC1N.[Cl-].[Cl-].[Pt+2] (stereo not drawn) [Compound 265459] |  |  | 1.00 Ratio | −9.8%
O=C1N[C@@H]2C(=C[C@H](O)[C@@H](O)[C@H]2O)c2cc3c(c(O)c21)OCO3 [Compound 266535] | −5.9% | 0.87 Ratio |  | 
CC(=O)O[C@@H]1C[C@H]2O[C@@H]3C=C(C)CC[C@]3(C)[C@]1(C)[C@]21CO1 [Compound 267033] |  |  | 1.04 Ratio | 6.7%
COc1ccc(S(=O)(=O)N/N=C/C(=O)O)cc1 [Compound 267213] |  |  | 1.05 Ratio | 2.9%
CC[C@@]1(O)C[C@H](O[C@H]2C[C@H](N(C)C)[C@H](O)[C@H](C)O2)c2c(cc3c(c2O)C(=O)c2c(O)ccc(O)c2C3=O)[C@H]1C(=O)OC [Compound 267229] |  |  | 0.49 Ratio | 31.5%
CC1OC(CC(=O)O)CC2=C1C(=O)c1c(O)cccc1C2=O (stereo not drawn) [Compound 267461] |  |  | 1.01 Ratio | −14.4%
CCNC(=O)OCc1c(COC(=O)NCC)c(-c2ccc(Cl)c(Cl)c2)n2c1CCC2 [Compound 267700] | −24.0% | 1.04 Ratio |  | 
C=C(C)C(=O)OC1CCC2(C)C(CCC3C2CCC2(C)C(c4ccc(=O)oc4)CC4OC432)C1 (stereo not drawn) [Compound 267712] | −22.8% | 1.09 Ratio |  | 
COc1cccc2c1C(=O)c1c(O)c3c(c(O)c1C2=O)C[C@@](O)(C(C)=O)C[C@@H]3O[C@H]1C[C@H](N(Cc2ccccc2)Cc2ccccc2)[C@H](O)[C@H](C)O1.Cl [Compound 268242] |  |  | 0.88 Ratio | 30.6%
CC(C)CCCCCCCCCCCCC(=O)NCC(=O)NC1C(C)OC(Nc2ncnc3nc[nH]c23)C(O)C1O (stereo not drawn) [Compound 268251] |  |  | 0.96 Ratio | 0.2%
CC[n+]1c(-c2ccccc2)c2cc(N)ccc2c2ccc(N)cc21.[Br-] [Compound 268986] |  |  | 0.81 Ratio | 36.0%
CC1=C[C@H]2O[C@@H]3[C@H](O)[C@@H](O)[C@@](C)([C@@]2(CO)CC1)[C@]31CO1 [Compound 269142] | −19.6% | 1.07 Ratio |  | 

Second part, led by results:

Inh. (%) (Inhibition) (MBHA with a DNA substrate) | Int.* (Ratio) (Interference) [2] | Structure (SMILES) | Int.* (Ratio) (Interference) [1] | Inh. (%) (Inhibition) (MBHA with DNA substrate)
9.6% | 0.96 Ratio | Nc1cc2[nH]cnc2c(=O)[nH]1 [Compound 261726] |  | 
−3.4% | 0.95 Ratio | COc1ccc(/C=C2\N=C(c3ccccc3)OC2=O)c(OCc2ccccc2)c1 [Compound 262665] |  | 
−43.3% | 1.28 Ratio | NC1=NCN([C@@H]2O[C@H](CO)[C@@H](O)[C@H]2O)C(=O)N1 [Compound 264880] |  | 
11.0% | 0.96 Ratio | CCCCCCCCCCSCC(CO)NC(=O)/C=C/c1c(C)[nH]c(=O)[nH]c1=O (stereo not drawn) [Compound 265473] |  | 
